The test has as its system subjects having a systolic BP≧160 mmHg or diastolic BP≧95 mmHg (elevated blood pressure). Kind of test: Example 1: blood pressure change in subjects with elevated blood pressure, none taking antihypertensive agents at baseline (two double-blind studies). The class given is in vivo, human. As for the experimental part:
A total of 103 subjects (9 in the placebo group, 26 in each the 2-[3-cyano-4-(2-methylpropoxy)phenyl]-4-methylthiazole-5-carboxylic acid (hereinafter referred to as “febuxostat”) 80 mg and 120 mg once daily (hereinafter referred to as “QD”) groups, 10 in the febuxostat 240 mg QD group and 32 in the 4-hydroxy-3,4-pyrazolopyrimidine (hereinafter referred to as “allopurinol”) 300/100 mg QD group), having a systolic BP≧160 mmHg or diastolic BP≧95 mmHg, and thus considered to have “elevated blood pressure”, were examined. Allopurinol […] xanthine oxidoreductase inhibitor.
None of the above subjects were taking any antihypertensive agents at the baseline (start) of the study. These […] subjects were part of two (2) double-blind (hereinafter referred to as “DB”) studies. One study was of 28 weeks in duration. During this time, the subjects received 80 mg, 120 mg or 240 mg QD of febuxostat, placebo or allopurinol 300 or 100 mg QD, depending on the subject's renal function. The second study was 52 weeks in duration. During this time, the subjects received 80 mg or 120 mg QD of febuxostat or allopurinol 300 mg QD.

The mark [1] stands for this setting: 80 mg QD, after 4 weeks of treatment.
Setting [2] is: 80 mg QD, after 28 weeks of treatment.
Where [3] appears, read: 80 mg QD, after 52 weeks of treatment.
[4] abbreviates: 120 mg QD, after 4 weeks of treatment.
Where [5] appears, read: 120 mg QD, after 28 weeks of treatment.
The mark [6] stands for this setting: 120 mg QD, after 52 weeks of treatment.
[7] abbreviates: 240 mg QD, after 4 weeks of treatment.
The mark [8] stands for this setting: 240 mg QD, after 28 weeks of treatment.

For the compound `Cc1nc(-c2ccc(OCC(C)C)c(C#N)c2)sc1C(=O)O` [febuxostat, 2-[3-cyano-4-(2-methylpropoxy)phenyl]-4-methylthiazole-5-carboxylic acid], the “mean change from baseline for diastolic BP” value is recorded as −3.7 mmHg under setting [1]; −10.2 mmHg under setting [2]; −12.3 mmHg under setting [3]; −8.4 mmHg under setting [4]; −6.4 mmHg under setting [5]; −10.0 mmHg under setting [6]. The “mean change from baseline for diastolic BP” value is −8.9 mmHg under setting [7] and −5.0 mmHg under setting [8]. In addition, the “mean change from baseline for mean arterial BP” value reads like this: under setting [1], −5.2 mmHg; under setting [2], −11.1 mmHg; under setting [3], −12.7 mmHg; under setting [4], −9.3 mmHg; under setting [5], −9.0 mmHg; under setting [6], −15.2 mmHg. For the same compound, the “mean change from baseline for mean arterial BP” value runs as follows: under setting [7], −9.3 mmHg; under setting [8], −6.0 mmHg. Further, the “mean change from baseline for systolic BP” value is −8.2 mmHg under setting [1]; −13.0 mmHg under setting [2]; −13.4 mmHg under setting [3]; −11.0 mmHg under setting [4]; −14.2 mmHg under setting [5]; −25.8 mmHg under setting [6]. For the same compound, the “mean change from baseline for systolic BP” value under setting [7] is −10.0 mmHg and the “mean change from baseline for systolic BP” value under setting [8] is recorded as −8.0 mmHg.

For the origin of these results see patent publication US20140329868A1, “METHODS FOR TREATING HYPERTENSION” (TAKEDA PHARMACEUTICALS U.S.A., INC., priority 2005, published 2014).
